From a melting point compilation (Tetko et al.; mined from patent text by program, amines drawn as free bases though some values may be those of a salt) come the findings set out here.

The melting point is the temperature of the solid-liquid transition.

Some results are limits rather than exact numbers.

In the case of `NC(=O)c1coc2c1C(=O)CC(c1ccccc1)C2` (configuration not stated), the melting point was 252 to 253 °C.
With `Clc1ccccc1-c1nc2cc(Cn3ccnc3)ccc2[nH]1` the figure was 115 °C; with `CN(C)CC#Cc1cc(CC2CCOCC2)cc2c(=O)c(C(=O)NCc3ccc(Cl)cc3)cn(C)c12`, 157 to 159 °C.
With `CN(C)c1nc2c(N)cc(Br)cc2n1C` the figure was 137 °C; with `CNC(=O)c1cc(Cl)cc(C)c1N`, 141 to 143 °C; with `CC(C)C#CC1(C(F)(F)F)OCC(=O)Nc2ccc(F)c(F)c21` (configuration not stated), 192 to 194 °C.
Turning to `COc1ccc(Oc2cc(Oc3ccc(OC)cc3)c(S(N)(=O)=O)cc2C(=O)O)cc1`, the melting point is 246 to 248 °C.
In turn, `O=C1c2ccccc2C(=O)N1CC#CCSc1nccc(NC(=S)NCC(F)(F)F)n1` came in with a melting point of 124 to 127 °C.
Take `CCOC(=O)c1cccc(Cc2c[nH]cn2)c1O`: the melting point was 133 °C.
To `CCCCCCCCCCCC(=O)NCCCSc1ccncc1` belongs 71 to 72 °C.
With `Cc1ccc(C(=O)Nc2c(NC(=O)CN(C)CC3OCCO3)ccc3c2C(=O)c2ccccc2C3=O)cc1` the figure was 156 to 157 °C; with `CCCCc1nn(-c2cc(NC(=O)CC)ccc2C(F)(F)F)c(=O)n1Cc1ccc(-c2ccccc2S(=O)(=O)NC(=O)c2ccccc2F)cc1F`, 119 to 122 °C.
With `O=C(OC1c2ccccc2C(=O)N1c1ccc2ccc(Cl)nc2n1)N1CCN(C=S)CC1` (configuration not stated) the figure was 295 °C; with `CCCC(=O)N1CCN(C(=O)OC2C3=C(SCCS3)C(=O)N2c2ccc3ccc(Cl)nc3n2)CC1` (configuration not stated), 248 °C; with `CC(C(=O)O)c1ccc(-c2ccc(OCc3nc4ccccc4s3)cc2)cc1` (configuration not stated), 199 to 200 °C.
For the compound `N#Cc1cccc(C2=Nc3cc(N4CCC5(CC4)OCCO5)c(-c4ccccc4F)cc3NC(=O)C2)c1`, the melting point stood at 253 °C.
In turn, `Cc1c(/C=C/C(=O)N(C)C)ncn1C(c1ccccc1)(c1ccccc1)c1ccccc1` yielded a melting point of 195 to 197 °C.
With `COc1c(Cl)ccc(-c2nc(C(=O)OC(C)C)c(Cl)c(N)c2F)c1F` the figure was 109 to 111 °C; with `CC1(C)CC(O)c2cc(N)ccc21` (configuration not stated), 118 °C; with `COc1cc(F)c(-c2cncc(OC3SCC(O)C(O)C3O)c2)c(F)c1` (configuration not stated), 200 °C.
To `NC(Oc1ccccc1)C(O)CCCNc1ccc(Br)cc1` (configuration not stated) belongs 106 to 110 °C; to `COc1ccc(C(=O)Nc2ccccc2)cc1NS(=O)(=O)c1ccc(NC(C)=O)cc1`, 250 to 251 °C; to `Nc1ccc2cccc(N3CCNCC3)c2c1`, 184 to 186 °C.
On to `COC(=O)NC1CCc2ccc(NC(=O)c3cccc(C)c3-c3ccc(C(F)(F)F)cc3)cc2CC1` (configuration not stated), for which the melting point was 190 to 193 °C.
To `O=C(O)c1cc2ccsc2nc1C(=O)O` belongs 272 to 275 °C; to `COc1ccc(-c2ccc3nc(N)c4ncn(CC(C)C)c4c3c2)c(OC)c1`, 223 to 227 °C.
To `CCN(CC)CCNC(=O)c1cc(F)c2cc(I)ccc2n1` belongs 58 to 60 °C; to `Nc1nccc(N2CCc3ccccc32)n1`, 177 to 179 °C.
With `O=C(Nc1ccc(Oc2ccc(Cl)cc2)cc1)N1CC(c2ccccc2)=C(c2ccc(Cl)cc2)N1` the figure was 158 to 161 °C.
`CC(CCCn1c(C)nc2c(N)nc3ccccc3c21)=NOCc1ccccc1` registered a melting point of 146 to 148 °C.
`Clc1ccc(N2CCN(Cc3n[nH]c4c(Cl)cccc34)CC2)cc1` registered a melting point of 152 to 154 °C.
As to `COC(=O)c1cc2ccc(C(=O)NC(CO)CO)cc2[nH]1`, the melting point lay in the range of 205 to 207 °C.
Regarding `ON=C(c1ccc(F)cc1)c1ccc2nc(N[C@@H]3CCc4ccccc43)ccc2c1`, the melting point is 226 °C.
With `N#CCCCCn1c(=O)sc2c(=O)[nH]c(N)nc21` the figure was 240 to 243 °C; with `CCCc1nc2cnc3cccnc3c2n1CC1(O)CCOC1` (configuration not stated), 151 to 152 °C.
To `COc1ccc2c(c1)C13CCCOC1(C)C(C2)N(C(=O)C1CCC1)CC3` (configuration not stated) belongs 166 to 167 °C.
To `O=C1C(=O)N(C(c2ccccc2)c2ccccc2)c2cccc(F)c21` belongs 168 to 171 °C; to `CN(C)S(=O)(=O)c1cccc(Cl)n1`, 53 to 55 °C.
Turning to `C[Si](C)(C)Sc1nnnn1-c1ccccc1`, the melting point is 67 to 68 °C.
With `CCCCCCCCCCOc1ccc(C(=O)NNC(=O)C(F)(F)C(F)(F)C(F)(F)F)cc1` the figure was 88 °C; with `COc1ccc(-c2ccc(C(C)=O)cc2)cc1C=O`, 136 to 138 °C.
`C=C1CCC(C(O)C(N)=O)CC1` (configuration not stated) registered a melting point of 127 to 129 °C.
`C#CCOC(=O)c1ccc(O)c(O)c1` gave a melting point of 127 to 129 °C.
With `CC(C)CC(CC1CCCCC1)Cn1ccnc1` (configuration not stated) the figure was 119 to 120 °C; with `O=C1Cc2cccc(OCc3ccccc3)c2N1`, 140 to 142 °C; with `N#CC(=C=Nc1nc2ccccc2[nH]1)C#N`, 340 to 345 °C.
For `CC(C)(C)c1cc(C(=O)COc2ccc(C(=O)OCc3ccccc3)c(O)c2)ccc1OCc1ccccc1`, the melting point lay in the range of 91 to 93 °C.
To `O=C(NCCCCOc1ccc(-n2ccnc2)cc1)Nc1ccc(Br)cc1` belongs 157 to 159 °C; to `CC(C)(C)c1cc(C(=O)NCc2ccc3c(Br)c(OC(Cc4ccccc4)C(=O)O)ccc3c2)cc(C(C)(C)C)c1` (configuration not stated), 160 to 163 °C.
To `CN(C)c1ccc(OCc2ccncc2)cc1` belongs 123 to 125 °C; to `O=C(NCCN1CCOCC1)N1CCN2C(=O)OC(c3ccccc3)(c3ccccc3)C2C1` (configuration not stated), 174 to 175 °C.
With `c1ccc(-c2nn3c(c2-c2cncc4cccnc24)CCC3)nc1` the figure was 180 to 184 °C.
`CS(=O)(=O)Nc1ccc(C(=O)NCCN2CCc3ccsc3C2c2ccccc2)cc1` (configuration not stated) gave a melting point of 185 to 187 °C.
In the case of `O=C(O)CN(CCN(CC(=O)O)CC(=O)O)CCN(CC(=O)O)CC(=O)NCCC(O)(P(=O)(O)O)P(=O)(O)O`, the melting point amounted to 145 °C.
To `CCCCc1oc2ccccc2c1-c1ncc(-c2ccc3cc(OC(Cc4ccccc4)C(=O)OC)ccc3c2)o1` (configuration not stated) belongs 122 to 124 °C; to `CCOc1ccc(OCCCc2cn(-c3ccc(C(F)(F)F)cn3)nc2OCC)c(CCC(=O)O)c1`, 104 to 105 °C; to `CCN(CC)N(C(C)=O)c1nc2cc3nc(N)sc3cc2s1`, 203 to 205 °C.
With `COC(=O)C1=Cc2cc(-c3ccc(N4CCOCC4)cc3)ccc2N(C(=O)OC)CC1` the figure was 216 to 220 °C; with `Cc1cccc(-c2nc(C(C)(C)C)n(C)n2)n1`, 106 °C.
With `CCOC(=O)c1ccc(NC(=O)C=C(c2ccc(F)cc2)c2ccc(F)cc2)cc1` the figure was 161 to 163 °C; with `N#Cc1cc(-c2cc(C(F)F)c3cnn(C4CCCCO4)c3n2)ccc1N` (configuration not stated), 192 °C.
For `NC(=O)c1ccc(-c2ccc(O)cc2)cc1Cl`, the melting point was 215 to 216 °C.
In the case of `CCCNC(=O)C(C)=Cc1ccc2ccn(Cc3ccc(C(=O)O)cc3OC)c2c1`, the melting point was 150 to 152 °C.
To `COC(=O)COc1ccc(NC(=O)c2cc(F)cc(N3CCC(C)CC3)c2)c2ccccc12` belongs 50 to 51 °C; to `O=C(O)c1nn(Cc2ccc(Cl)cc2Cl)c2c1Cc1cc(Cl)ccc1-2`, above 260 °C.
To `CCOCc1nnc2c(C(F)(F)F)c(Cl)ccn12` belongs 104 °C; to `COC(=O)[C@H]1C[C@H](NC(=O)c2cccc(CNC(=O)OC(C)(C)C)c2)c2c(Cl)cc(Cl)cc2N1` (relative stereo), 222 to 223 °C.
`COc1cc(C=CNC(C)=O)ccc1OCC1CO1` (configuration not stated) had a melting point of 173 to 174 °C.
For `N#CC1CN1C(=O)NC(=O)CC1CCCCC1` (configuration not stated), the melting point lay within 142 to 144 °C.
With `O=C(CCl)c1ccc2c(c1)Cc1cc(C(=O)CCl)ccc1O2` the figure was 200 to 201 °C.
Take `Clc1ccc(Nc2ncc(Sc3ccncc3)c3ccccc23)cc1`: the melting point was in the range of 192 to 195 °C.
To `Cc1noc(C)c1-c1ccc(OC2SCC(O)C(O)C2O)c(F)c1` (configuration not stated) belongs 140 °C; to `CC(C)CCCC(C)C1CCC2C3=CC=C4CC(OC(=O)c5ccccc5)CC(OC(=O)c5ccccc5)C4(C)C3CCC21C` (configuration not stated), 161 °C; to `CCC(c1oc2ccccc2c(=O)c1-c1cccc(F)c1)n1nc(-c2ccc3c(C)n[nH]c3c2)c2c(N)ncnc21` (configuration not stated), 268 to 270 °C.
To `O=C(O)C(OCc1ccc(-c2ccc(Cl)cc2)cc1)c1ccccc1` (configuration not stated) belongs 119 to 121 °C; to `COc1cc(OC)cc(-c2cc(=O)c3ccc(OCC(O)CN4CCN(c5ccccc5)CC4)cc3o2)c1` (configuration not stated), 195 to 196 °C; to `Cn1cc(C(=O)Nc2ccccc2-c2ccc(F)c(Cl)c2)c(CF)n1`, 133 to 134 °C.
As for `NC(=NOCC1CC1)c1c(C(F)(F)F)ccc(C(F)(F)F)c1Cl`, the melting point was 75 to 80 °C.
The compound `O=C(c1cccs1)C(O)c1ccc(F)cc1` (configuration not stated) had a melting point of 90 to 92 °C.
With `O=C(Nc1ccc2[nH]ccc2c1)c1ccc(F)cc1` the figure was 205 to 207 °C; with `CCCCCCCCCCCCCCCCC[C@H](C[C@H](O)[C@H](CC)C(=O)O)OCc1ccccc1`, 62 to 63.5 °C; with `CCOc1cc2c(cc1OCC)[C@@H]1CCCC[C@@H]1N=C2c1ccc(O)nc1` (racemic), 211 to 213 °C.
Compound `CC=CCn1c(C(=O)c2cc(C)cc(C#N)c2)c(C(C)C)c(=O)[nH]c1=O` yielded a melting point of 177 to 178 °C.
The compound `COC(=O)[C@@H]1CSCN1S(=O)(=O)c1ccc(Cl)c(CBr)c1Cl` showed a melting point of 48 to 50 °C.
Compound `COc1ccc(S(=O)(=O)C=CC(=O)O)cc1` yielded a melting point of 123 to 128 °C.
To `O=C(O)C1=Cc2cc(I)ccc2NC1C(F)(F)F` (configuration not stated) belongs 188 to 192 °C.
With `Cc1c(C)c2c(c(C)c1NC(=O)N1CCCC1)C(c1ccc(C(C)C)cc1)CO2` (configuration not stated) the figure was 186 to 188 °C.
